Data from patent US11013780B2, “Methods of treating female infertility” (Myovant Sciences GmbH, priority 2016, dated 2021).
“And” between values parts separate entries of the source, which are not always exact repeats. Equal values may be shown once. Where a SMILES comes first, the peptide text is derived from it. [ ]: non-standard residue; d: D form. Arg(Me) = CNC(=N)NCCC[C@H](N)C(=O)O; Hyp = O=C(O)[C@@H]1C[C@@H](O)CN1; azaGly = NNC(=O)O

Columns and labels:
CYP2C9 = CYP2C9 (Homo sapiens, UniProt P11712); test: Inhibition of recombinant CYP2C9; format: in vitro ADME
[1] = In vitro distribution into blood cells, dogs; format: in vitro ADME
Experimental: (§1) The in vitro distribution ratios of [^14C]API-MA into the blood cells at the concentrations of 0.01, 0.1, 1, and 10 μg/mL API-FB (free form) were 7.8%, 8.0%, 7.1%, and 4.8% for rats, 2.4%, 2.0%, 1.6%, and 1.2% for dogs, and 2.0%, 0.0%, 0.0%, and 0.5% for humans, respectively. […] The in vitro plasma protein binding ratios of [^14C]API-FB in rats, dogs, monkeys, and humans were determined by the ultracentrifugation method. In addition, the protein binding to human serum albumin (HSA), α1-acid glycoprotein (AGP), and HSA/AGP was investigated. […] In rats and dogs, a slight decrease in the binding ratio at the concentration range between 0.1 and 1.0 μg/mL API-FB was observed. In monkeys and humans, the binding was independent of the drug concentrations from 0.01 to 10 μg/mL API-FB.

serum LH and FSH = test: Single dose pharmacodynamics (LH, FSH), European men; format: in vivo, human
Experimental: Another study was a single dose, phase 1 clinical study of API-MA in healthy men age 50 to 76 years. Subjects enrolled in the first […] cohorts received 0.001, 0.003, 0.01, 0.03, 0.1 or 0.3 mg of API-MA or placebo by single SC bolus. Subjects enrolled in the seventh, eighth, and ninth cohorts received 1, 3, or 6 mg of API-MA or placebo by single 2-hour SC infusion. The pharmacodynamics of each of the following hormones was assessed: LH and FSH. PRL, TSH, cortisol, sex hormone binding globulin (SHBG), and plasma ACTH (also known as corticotropin) concentrations were measured on the day prior to dosing and on day 4, the Final Visit. To measure serum concentrations of LH and FSH in the bolus cohorts, blood specimens were collected at the following nominal times: the day prior to dosing, predose, and 0.083, 0.25, 0.75, 1, 2, 3, 4, 6, 8, 12, 16, 24, 36, 48 and 72 hours postdose. In the infusion cohorts, blood specimens were collected at the following nominal times: the day prior to dosing, predose or start of the infusion, and 0.5, 1, 1.5, 2 (end of infusion), 2.25, 2.5, 3, 4, 6, 8, 10, 14, 18, 26, 50 and 74 hours after the start of infusion. Serum LH concentrations increased after a single SC bolus of API-MA, as well as after a single 2-hour SC infusion of API-MA. The concentrations peaked between 6 and 12 hours and returned to baseline by 72 hours. The magnitudes and durations of the LH concentration increases were similar across the dose range, 0.001 to 6 mg.

serum LH, FSH and PSA = test: Multiple-dose pharmacodynamics, Japanese prostate cancer patients; format: in vivo, human
Experimental: The study was a phase 1 study in hormone naïve Japanese prostate cancer patients. Six patients received API-MA doses of 0.5 mg (3 patients) and 1.0 mg (3 patients) administered via 2-hour SC infusion once daily for 14 days. Summary statistics of serum concentrations of LH, FSH, GH, PRL, and TSH, as well as plasma concentration of ACTH and serum concentration of prostate-specific antigen (PSA), at baseline and at each evaluation point, changes from baseline were calculated for each dose, and the data (individual values and mean±standard deviation) were plotted against time for each dose. […] Changes in serum LH were similar between 0.5 and 1.0 mg of API-MA (data for API-MA 1.0 mg/day dose group not shown).

serum LH and PSA = test: 1-month depot pharmacodynamics, prostate cancer patients; format: in vivo, human
Experimental: Nine patients with prostate cancer were enrolled in another study, three in each dose group (6, 12, and 24 mg). Patients received API-MA as a single 1-month depot injection that was intended to initiate both a high-burst release of API-MA and rapid stimulation of hypothalamic-pituitary-gonadal axis. Overall, 4 of 9 patients received concomitant GnRH therapy. Assessments of pharmacodynamics included LH concentrations and serum PSA concentrations. Results were grouped based on patients who were or were not receiving concomitant GnRH therapy.

in vitro = in vitro ADME, rats, dogs, monkeys, humans; conditions: rat, dog, monkey, human, plasma
Experimental: as §1

[2] = dog, in vivo; cited from earlier work
[3] = Japanese prostate cancer patients, 0.5 mg/day 2-hour SC infusion for 14 days

CYP2C9, sequence (P11712 whole entry): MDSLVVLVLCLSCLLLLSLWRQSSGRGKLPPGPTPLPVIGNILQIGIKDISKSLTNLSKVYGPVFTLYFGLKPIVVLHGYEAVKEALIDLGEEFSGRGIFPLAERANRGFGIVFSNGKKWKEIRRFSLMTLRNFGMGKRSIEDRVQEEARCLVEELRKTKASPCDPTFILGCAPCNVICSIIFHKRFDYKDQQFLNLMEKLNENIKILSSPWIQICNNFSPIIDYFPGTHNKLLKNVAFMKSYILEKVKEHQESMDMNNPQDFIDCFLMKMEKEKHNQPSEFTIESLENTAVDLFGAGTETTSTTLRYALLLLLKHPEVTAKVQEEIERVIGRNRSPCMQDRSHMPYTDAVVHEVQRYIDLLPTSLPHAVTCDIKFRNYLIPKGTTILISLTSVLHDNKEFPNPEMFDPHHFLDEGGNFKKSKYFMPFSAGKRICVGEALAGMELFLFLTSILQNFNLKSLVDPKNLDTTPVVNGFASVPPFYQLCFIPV

Compound	IC50 (CYP2C9) [nM]	Distribution ratio into blood cells ([1]; 0.01 μg/mL API-FB) [%]	Distribution ratio into blood cells ([1]; 0.1 μg/mL API-FB) [%]	Distribution ratio into blood cells ([1]; 1 μg/mL API-FB) [%]	Distribution ratio into blood cells ([1]; 10 μg/mL API-FB) [%]	Changes in serum SHBG, prolactin, TSH, corticotropin, cortisol (serum LH and FSH; any dose level)	Time of FSH return / decline towards baseline (serum LH and FSH; single dose 0.001 to 6 mg) [h]	Time of LH return to baseline (serum LH and FSH; single dose 0.001 to 6 mg) [h]	Serum FSH levels (serum LH, FSH and PSA; [3])	Serum LH levels (serum LH, FSH and PSA; [3])	Serum PSA decrease compared to baseline (serum LH, FSH and PSA; patients receiving 0.5 mg)	Greatest percent decrease from baseline in PSA, individual patients (serum LH and PSA; month 1, day 29, 6 mg dose group)	Greatest percent decrease from baseline in PSA, individual patients (serum LH and PSA; month 1, day 29, 12 mg dose group)	Greatest percent decrease from baseline in PSA, individual patients (serum LH and PSA; month 1, day 29, 24 mg dose group)	Greatest reduction in PSA (serum LH and PSA; month 2 day 29, a patient in the 24 mg dose group) [%]	fraction unbound (in vitro)	bioavailability [2] [%]
CC(=O)O.CNC(=N)NCCC[C@H](NC(=O)[C@H](CC(C)C)NC(=O)NNC(=O)[C@H](Cc1ccccc1)NC(=O)[C@@H](NC(=O)[C@H](CC(N)=O)NC(=O)[C@@H]1C[C@@H](O)CN1C(=O)[C@@H](Cc1ccc(O)cc1)NC(C)=O)[C@@H](C)O)C(=O)N[C@@H](Cc1c[nH]c2ccccc12)C(N)=O [API-MA, 2-(N-Acetyl-D-tyrosyl-trans-4-hydroxy-L-prolyl-Lasparaginyl-L-threonyl-L-phenylalanyl)-hydrazinocarbonyl-L-leucyl-Nω-methyl-L-arginyl-L-tryptophanamide monoacetate] (Ac-[dY][Hyp]NTF[azaGly]L[Arg(Me)]W-NH2)	> 7.78	2.4	2.0	1.6	1.2	no relevant changes	≤ 72	≤ 72	completely suppressed from Day 6 to Day 16	completely suppressed from Day 6 to Day 16	approximately 40%	8% and 19%	25% and 62%	88% and 74% and 79%	91	–	–
CNC(=N)NCCC[C@H](NC(=O)[C@H](CC(C)C)NC(=O)NNC(=O)[C@H](Cc1ccccc1)NC(=O)[C@@H](NC(=O)[C@H](CC(N)=O)NC(=O)[C@@H]1C[C@@H](O)CN1C(=O)[C@@H](Cc1ccc(O)cc1)NC(C)=O)[C@@H](C)O)C(=O)N[C@@H](Cc1c[nH]c2ccccc12)C(N)=O [Compound 1, 2-(N-Acetyl-D-tyrosyl-trans-4-hydroxy-L-prolyl-L-asparaginyl-L-threonyl-L-phenylalanyl)-hydrazinocarbonyl-L-leucyl-Nω-methyl-L-arginyl-L-tryptophanamide] (Ac-[dY][Hyp]NTF[azaGly]L[Arg(Me)]W-NH2)	–	–	–	–	–	–	–	–	–	–	–	–	–	–	–	0.267 to 0.447	92.4
